In patent US5010102A, “Anti-ulcer 5-(2-substituted ethenyl)-3(2H)-furanones” (American Home Products Corp., priority 1990, dated 1991):

System: gastric mucosal lesions produced by ethanol
Experiment: prevention of gastric mucosal lesions produced by ethanol in rats (cytoprotective/anti-ulcer, Robert et al.)
Assay type: in vivo
Conditions: Rattus norvegicus, oral, usually 1 hour before ethanol, male Sprague-Dawley rats; for ED50: calculated from a series of dosage levels, read-out: ED50 (dose at which half the animals did not develop lesions significantly different from the control group); for inhibition in vivo at 10 mg/kg / inhibition in vivo at 25 mg/kg: read-out: percentage inhibition of lesion formation
Experimental: The rats were placed in individual cages and denied water 2 hours or more before testing. At a fixed time before administration of ethanol (usually 1 hour), the animals were orally administered either the test compound or its water-carboxymethylcellulose vehicle. Ethanol was then administered orally at a dose of 1 mL per animal. One hour after administration of the ethanol, the animals were sacrificed and their stomachs removed, cut along the greater curvature and flushed clean with tap water. Macroscopic lesions on the gastric mucosa were graded from 0-3 based upon the absence of lesions to the presence of lesions which approximate 6 millimeters in length. Comparison of the treated group with the control group permits expression of the results as percentage inhibition of lesion formation as a direct measure of cytoprotection. […] The results of these studies are given at the end of each example illustrating the preparation of the tested compound, supra, as the percent inhibition or ED50 where the latter value was determined.

SMILES	ED50 [mg/kg]	inhibition in vivo at 10 mg/kg [%]	inhibition in vivo at 25 mg/kg [%]
CC1(c2ccccc2)OC(/C=C/c2ccccn2)=CC1=O (stereo not drawn) [Example 28, 2-Methyl-2-phenyl-5-[2-(2-pyridinyl)ethenyl]-3(2H)-furanone]	6		
CC1(C)OC(/C=C/c2cnccn2)=CC1=O [Example 21, 2,2-Dimethyl-5-[2-(2-pyrazinyl)ethenyl]-3(2H)-furanone]		56	
CC1(C)OC(/C=C/c2cccs2)=CC1=O [Example 23, 2,2-Dimethyl-5-[2-(2-thienyl)ethenyl]-3(2H)-furanone]		1	
CC1(C)OC(/C=C/c2ccsc2)=CC1=O [Example 22, 2,2-Dimethyl-5-[2-(3-thienyl)ethenyl]-3(2H)-furanone]	4		
CC1(C)OC(/C=C/c2ccc(Br)cc2)=CC1=O [Example 5, (E)-2,2-Dimethyl-5-[2-(4-bromophenyl)ethenyl]-3(2H)-furanone]			63
CC1(C)OC(/C=C/c2ccc(C(F)(F)F)cc2)=CC1=O [Example 11, 2,2-Dimethyl-5-[2-[4-(trifluoromethyl)phenyl]ethenyl]-3(2H)-furanone]			30
CC1(C)OC(/C=C/c2ccc(F)cc2)=CC1=O [Example 2, 2,2-Dimethyl-5-[2-(4-fluorophenyl)ethenyl]-3(2H)-furanone]	11		
COc1cc(/C=C/C2=CC(=O)C(C)(C)O2)cc(OC)c1OC [Example 1, 2,2-Dimethyl-5-[2-(3,4,5-trimethoxyphenyl)ethenyl]-3(2H)-furanone]			81
Cn1cccc1/C=C/C1=CC(=O)C(C)(C)O1 [Example 16, 2,2-Dimethyl-5-[2-(1-methyl-2-pyrrolyl)ethenyl]-3(2H)-furanone]		32	
CC1(c2ccc(F)cc2)OC(/C=C/c2ccsc2)=CC1=O (stereo not drawn) [Example 33, 2-(4-Fluorophenyl)-2-methyl-5-[2-(3-thienyl)ethenyl]-3(2H)-furanone]		22	
CC1(C)OC(/C=C/c2ccc(F)c(F)c2)=CC1=O [Example 4, 5-[2-(3,4-Difluorophenyl)ethenyl]-2,2-dimethyl-3(2H)-furanone]			47
CC1(C)OC(/C=C/c2cc(Cl)cc(Cl)c2)=CC1=O [Example 10, 5-[2-(3,5-Dichlorophenyl)ethenyl]-2,2-dimethyl-3(2H)-furanone]	9		
CSc1ccc(/C=C/C2=CC(=O)C(C)(C)O2)cc1 [Example 12, (E)-2,2-Dimethyl-5-[2-[4-(methylthio)phenyl]ethenyl]-3(2H)-furanone]			5
CC1(c2ccc(F)cc2)OC(/C=C/c2ccc(C#N)cc2)=CC1=O (stereo not drawn) [Example 31, 4-[2-[2,3-Dihydro-2-(4-fluorophenyl)-2-methyl-3-oxo-5-furanyl]ethenyl]benzonitrile]		1	
CC1(C)OC(/C=C/c2ccc(Cl)cc2)=CC1=O [Example 6, 2,2-Dimethyl-5-[2-(4-chlorophenyl)ethenyl]-3(2H)-furanone]	10.3		
CC1(C)OC(/C=C/c2ccnc3ccccc23)=CC1=O [Example 20, 5-[2-(4-Quinolinyl)ethenyl]-2,2-dimethyl-3(2H)-furanone]	2.5		
CC1(C)OC(/C=C/c2cc3ccccc3s2)=CC1=O [Example 24, 5-[2-(Benzo[b]thien-2-yl)ethenyl]-2,2-dimethyl-3(2H)-furanone]		17	
CC1(c2ccc(F)cc2)OC(/C=C/c2ccccn2)=CC1=O (stereo not drawn) [Example 32, 2-Methyl-2-(4-fluorophenyl)-5-[2-(2-pyridinyl)ethenyl]-3(2H)-furanone]	3.5	92	
CC1(c2ccccc2)OC(/C=C/c2ccncc2)=CC1=O (stereo not drawn) [Example 27, 2-Methyl-2-phenyl-5-[2-(4-pyridinyl)ethenyl]-3(2H)-furanone]		44	
CC1(C)OC(/C=C/c2ccncc2)=CC1=O [Example 18, 2,2-Dimethyl-5-[2-(4-pyridinyl)ethenyl]-3(2H)-furanone]	4		
CC1(C)OC(/C=C/c2ccc(F)cc2F)=CC1=O [Example 3, 5-[2-(2,4-Difluorophenyl)ethenyl]-2,2-dimethyl-3(2H)-furanone]			52
CC1(C)OC(/C=C/c2ccc(S(C)(=O)=O)cc2)=CC1=O [Example 13, 2,2-Dimethyl-5-[2-[4-(methylsulfonyl)phenyl]ethenyl]-3(2H)-furanone]	10.6		56
CC1(C)OC(/C=C/c2ccccn2)=CC1=O [Example 17, 2,2-Dimethyl-5-[2-(2-pyridinyl)ethenyl]-3(2H)-furanone]	9		
CC1(C)OC(/C=C/c2ccoc2)=CC1=O [Example 25, 5-[2-(3-Furanyl)ethenyl]-2,2-dimethyl-3(2H)-furanone]		35	
CC1(c2ccccc2)OC(/C=C/c2cccnc2)=CC1=O (stereo not drawn) [Example 26, 2-Phenyl-2-methyl-5-[2-(3-pyridinyl)ethenyl]-3(2H)-furanone]	5		
CC1(c2ccccc2)OC(/C=C/c2ccc(C#N)cc2)=CC1=O (stereo not drawn) [Example 29, 4-[2-[2,3-Dihydro-2-methyl-3-oxo-2-phenyl-5-furanyl]ethenyl]benzonitrile]		4	
CC1(C)OC(/C=C/c2ccc(C#N)cc2)=CC1=O [Example 14, 4-[2-(2,3-Dihydro-2,2-dimethyl-3-oxo-5-furanyl)ethenyl]benzonitrile]	15		
CC1(C)OC(/C=C/c2cccnc2)=CC1=O [Example 19, 2,2-Dimethyl-5-[2-(3-pyridinyl)ethenyl]-3(2H)-furanone]	9.3		
